SMILES strings stand for the structures. ≈ marks a conversion by molar mass, not a printed value. Where two headings read alike, the source gives them in different places.

One experiment deals with P. aeruginosa. Kind of experiment: Direct flow cytometric AST (high-throughput flow cytometry, HTFC) of sucrose-recovered bacteria. It is filed as cell-based, Pseudomonas aeruginosa. More on the design: key to susceptibility classification, HTFC: (S) sensitive; (I) intermediate; (R) resistant. The following applies: for MIC: Pseudomonas aeruginosa, read-out: Minimum inhibitory concentration, HTFC. As for the experimental part:
AST workflow using bacteria recovered directly from positive blood culture. A 1-mL aliquot of bacteria recovered using separation method 2 was diluted 10-fold in CAMHB, the OD600 adjusted to ˜0.01, and a 50 μL aliquot distributed into each well of a 96-well plate containing CAMHB with and without ceftazidime, tobramycin, and either meropenem (E. coli and P. aeruginosa) or oxacillin (S. aureus). Following Clinical and Laboratory Standards Institute (CLSI) guidelines^33, 2% sodium chloride (NaCl) was present in wells containing oxacillin to assist in the detection of methicillin-resistant S. aureus (MRSA). […] To account for observed differences in doubling and lag times, E. coli and P. aeruginosa were incubated for 4 hours at 37° C., while S. aureus was incubated for 9 hours at 35° C. After incubation, antibiotic plates were removed from the incubator and directly stored on ice (i.e. no post-processing) until high-throughput flow cytometry (BD LSRFortessa with HTS-system, BD, Franklin Lakes, NJ). No-antibiotic controls and antibiotic-treated samples were handled identically.
MIC Determination by flow cytometry. Because antibiotic effects are observed in both the position of scatter signatures (morphology changes) and count rates (growth inhibition), a modified count rate, accounting for scatter position, was used to evaluate susceptibility. Briefly, no-antibiotic control populations (triplicate) were pooled, binned, and a convex hull boundary set at 1-standard deviation above the background (not including bins with zero counts) was drawn. […] The overlap ratio, measuring changes in morphology, was then computed by dividing the number of sample events within the no-antibiotic control boundary by the total number of events within the sample. As an increase in count rate attributed to viable bacteria in antibiotic-treated samples is not scientifically meaningful, the fractional overlap was multiplied by the minimum of the control and sample count rates to generate a modified count rate accounting for antibiotic-induced morphological changes. All modified count rates were normalized by the average of the no-antibiotic controls. For automatic MIC determination, normalized count rates corresponding to n (index of predicted MIC), n+1, n+2 were iteratively fit to a linear function with a frameshift of n+1 between iterations (FIGS. 8 and 9). […] A threshold of −0.01 instead of zero was used to mitigate the influence of small fluctuations in normalized count rates on susceptibility determinations.
On the technique in general: A flow cytometer gives signals particle by particle.

In a further experiment the test system is E. coli 79. Kind of experiment: Microbroth dilution MIC with and without sucrose recovery. In kind it is cell-based, Escherichia coli. The following applies: MIC given as multiple of S/I/R. As to the method: Microbroth dilution for minimum inhibitory concentrations (MIC) with and without sucrose recovery. To isolate bacteria without sucrose, culture media from positive BacT/alert FA PLUS aerobic culture bottles (bioMérieux, Durham, NC) was serially diluted and plated onto LB agar (Lennox; Sigma-Aldrich, St. Louis, MO). Bacterial suspensions were prepared by resuspending colonies in CAMHB with incubation on a MaxQ 4000 incubator shaker (Thermo Fisher Scientific, Waltham, MA) at 37° C. and ˜225 rpm for 3 hours. Bacteria recovered via Method 2 were diluted 10-fold in CAMHB. Following incubation or sucrose recovery and dilution, bacterial suspensions were adjusted to ˜0.004 OD600 with CAMHB and a 50-μL aliquot distributed to each well of a 96-well plate containing CAMHB with and without clinically relevant antibiotics (2-fold dilution series). Gram-negative plates included: ceftazidime (3rd generation cephalosporin, RPI corp., Mount Prospect, IL), cefepime (4th generation cephalosporin, Chem-Impex Int'l, Wood Dale, IL), meropenem (carbapenem, Tokyo Chemical Industry, Tokyo, Japan), levofloxacin (quinolone, Alfa Aesar, Haverhill, MA), and tobramycin (aminoglycoside, MP Biomedicals LLC, Santa Ana, CA), while S. aureus plates contained: oxacillin (beta-lactam, Sigma-Aldrich, St. Louis, MO), vancomycin (glycopeptide, Santa Cruz Biotechnology, Dallas, TX), erythromycin (macrolide, Sigma-Aldrich, St. Louis, MO), clindamycin ([…]), and ciprofloxacin (fluoroquinolone, Sigma-Aldrich, St. Louis, MO). Antibiotic plates were incubated at 37° C. for 16-20 hours (gram-negative) or 35° C. for 24 hours (S. aureus), at which time, plates were removed from the incubator and visually inspected for bacterial growth. The MIC was set at the lowest antibiotic concentration at which no growth was detected.
Influence of Sucrose on Bacterial MIC. To rule out the potential effect of sucrose exposure in bacterial antibiotic susceptibility, microbroth dilution studies were performed on bacteria recovered using standard practices (i.e. plating following positive blood culture) and through selective lysis coupled with centrifugation through the sucrose cushion (Method 2).
Background: Broth dilution looks for growth in wells or tubes with falling amounts of substance.

[1] abbreviates: P. aeruginosa Blood Culture B, antibiotic 4 hours (37° C.).
[2] abbreviates: P. aeruginosa Blood Culture C, antibiotic 4 hours (37° C.).
[3] abbreviates: P. aeruginosa PA7, antibiotic 4 hours (37° C.).
Setting [4] is: P. aeruginosa PA46, antibiotic 4 hours (37° C.).
Where [5] appears, read: P. aeruginosa PA49, antibiotic 4 hours (37° C.).
Setting [6] is: P. aeruginosa PA81, antibiotic 4 hours (37° C.).
[7] abbreviates: P. aeruginosa PAO1, antibiotic 4 hours (37° C.).
Setting [8] is: 4 h, P. aeruginosa Blood Culture B, antibiotic 4 hours (37° C.).
Where [9] appears, read: 4 h, P. aeruginosa Blood Culture C, antibiotic 4 hours (37° C.).
Setting [10] is: 4 h, P. aeruginosa PA7, antibiotic 4 hours (37° C.).
The mark [11] stands for this setting: 4 h, P. aeruginosa PA46, antibiotic 4 hours (37° C.).
Setting [12] is: 4 h, P. aeruginosa PA49, antibiotic 4 hours (37° C.).
Where [13] appears, read: 4 h, P. aeruginosa PA81, antibiotic 4 hours (37° C.).
Where [14] appears, read: PAO1, 4 h, P. aeruginosa PAO1, antibiotic 4 hours (37° C.).

On to `CC(C)(O/N=C(\C(=O)N[C@@H]1C(=O)N2C(C(=O)[O-])=C(C[n+]3ccccc3)CS[C@H]12)c1csc(N)n1)C(=O)O` [Ceftazidime, ceftazidime], for which the “susceptibility classification, HTFC” value with P. aeruginosa (setting [1]), with P. aeruginosa (setting [2]), in the experiment with P. aeruginosa (setting [3]), with P. aeruginosa (setting [4]), in the experiment with P. aeruginosa (setting [5]) and in the experiment with P. aeruginosa (setting [6]) was “(S)” in each case. Moreover, the “susceptibility classification, HTFC” value with P. aeruginosa (setting [7]) was “(S)”. The MIC with P. aeruginosa (setting [8]) is 4 µg/mL (≈ 7.32 µM); in the experiment with P. aeruginosa (setting [9]), 2 µg/mL (≈ 3.66 µM); with P. aeruginosa (setting [10]), 8 µg/mL (≈ 14.6 µM); in the experiment on P. aeruginosa (setting [11]), 2 µg/mL (≈ 3.66 µM); in the experiment on P. aeruginosa (setting [12]), 4 µg/mL (≈ 7.32 µM); with P. aeruginosa (setting [13]), 8 µg/mL (≈ 14.6 µM). Moreover, the MIC in the experiment on P. aeruginosa (setting [14]) was 1 µg/mL (≈ 1.83 µM).
Consider `C[C@@H](O)[C@H]1C(=O)N2C(C(=O)O)=C(S[C@@H]3CN[C@H](C(=O)N(C)C)C3)[C@H](C)[C@H]12` [Meropenem, meropenem], for which the “susceptibility classification, HTFC” value with P. aeruginosa (setting [1]) was “(S)”; with P. aeruginosa (setting [2]) it was “(S)”; in the experiment with P. aeruginosa (setting [3]) it was “(S)”; with P. aeruginosa (setting [4]), “(S)”; in the experiment with P. aeruginosa (setting [5]), “(S)”; in the experiment with P. aeruginosa (setting [6]), “(R)”. The “susceptibility classification, HTFC” value in the experiment with P. aeruginosa (setting [7]) is “(S)”. For the same compound, the MIC was determined as 2 µg/mL (≈ 5.22 µM) with P. aeruginosa (setting [8]); 0.125 µg/mL (≈ 0.326 µM) in the experiment with P. aeruginosa (setting [9]); 2 µg/mL (≈ 5.22 µM) in the experiment on P. aeruginosa (setting [10]); 1 µg/mL (≈ 2.61 µM) with P. aeruginosa (setting [11]); 0.5 µg/mL (≈ 1.3 µM) in the experiment with P. aeruginosa (setting [12]); 8 µg/mL (≈ 20.9 µM) with P. aeruginosa (setting [13]). In addition, in the experiment on P. aeruginosa (setting [14]), the MIC was determined as 2 µg/mL (≈ 5.22 µM).
Regarding `NC[C@H]1O[C@H](O[C@H]2[C@H](O)[C@@H](O[C@H]3O[C@H](CO)[C@@H](O)[C@H](N)[C@H]3O)[C@H](N)C[C@@H]2N)[C@H](N)C[C@@H]1O` [Tobramycin, tobramycin], the “minimum inhibitory concentration (MIC), Standard” value in the experiment with E. coli 79 (E. coli 79 recovered by standard plating) was “¼S”. For the same compound, the “minimum inhibitory concentration (MIC), Sucrose” value in the experiment with E. coli 79 (E. coli 79 recovered through sucrose (Method 2)) is “¼S”. The “susceptibility classification, HTFC” value with P. aeruginosa (setting [1]) is recorded as “(S)”; in the experiment with P. aeruginosa (setting [2]), “S”; with P. aeruginosa (setting [3]), “(R)”; in the experiment on P. aeruginosa (setting [4]), “(S)”; with P. aeruginosa (setting [5]) it was “(S)”; with P. aeruginosa (setting [6]) it was “(S)”. For the same compound, the “susceptibility classification, HTFC” value with P. aeruginosa (setting [7]) is “(S)”. The MIC in the experiment on P. aeruginosa (setting [8]) was 0.25 µg/mL (≈ 0.535 µM); with P. aeruginosa (setting [10]), above 16 µg/mL; in the experiment on P. aeruginosa (setting [11]), 1 µg/mL (≈ 2.14 µM); in the experiment with P. aeruginosa (setting [12]), 1 µg/mL (≈ 2.14 µM); in the experiment with P. aeruginosa (setting [13]), 1 µg/mL (≈ 2.14 µM); in the experiment on P. aeruginosa (setting [14]) it was 2 µg/mL (≈ 4.28 µM).

For the origin of these results see patent US20240368667A1, “RAPID, LABEL-FREE ANTIBIOTIC SUSCEPTIBILITY OF BACTERIA DIRECTLY FROM POSITIVE BLOOD OR BODILY FLUID/CULTURE” (priority 2021, published 2024).
